What all share (test): NCI tumour cell line growth inhibition, 48 h
The test system of experiment [1] is SK-MEL-28 melanoma.
The test system of experiment [2] is NCI-H23 lung.
Experiment [3] relates to IGROV1 ovarian.
In experiment [4] the test system is MALME-3M melanoma.
For experiment [5], the system named is HCT-116 colon.
The subject of experiment [6] is PC-3 prostate.
For experiment [7], the system named is MCF7 breast.
Experiment [8] deals with CCRF-CEM leukemia.
The subject of experiment [9] is HOP-62 NSCLC.
Experiment [10] deals with RXF 393 renal.

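48-hour exposure; five concentrations; linearly interpolated endpoints. TGI: total growth inhibition.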

As to `CCNC(=S)NNC(=O)c1ccccc1Nc1ccccc1C(=O)NNC(=S)NCC`, the TGI in [1], in experiment [2], in experiment [3], in [4], in experiment [5] and in experiment [6] was > 100 µM throughout. Moreover, the TGI in experiment [7], in experiment [8] and in experiment [9] was > 100 µM each time.
For `CCSc1nc(N/N=C/c2cccs2)c2cnn(CO)c2n1`, the TGI came out at 29.3 µM in [1]; 17.3 µM in experiment [2]; 10.7 µM in experiment [3]; 13.9 µM in experiment [10]; 26.9 µM in [4]; 16.6 µM in [5]. Besides, the figures for the TGI in experiment [6], in [7] and in experiment [9] were 21.4 µM, 14.4 µM and 14.9 µM, respectively.
Regarding `O=S(=O)(c1ccccc1)c1ccc(-c2nc(-c3ccc4c(c3)Sc3ccccc3S4)cs2)cc1`, the TGI is 36.1 µM in [2]; 35.3 µM in [10]; > 100 µM in experiment [4]; > 100 µM in experiment [5]; > 100 µM in [6]; > 100 µM in experiment [7]. Moreover, the TGI in experiment [8] is > 100 µM; in [9] it was 45.5 µM.
As for `CC[C@]12C=CCN3CC[C@@]4(c5cc(Br)c(OC)cc5N(C)[C@H]4[C@@](O)(C(=O)NC(Cc4c[nH]c5ccccc45)C(=O)OC)[C@@H]1O)[C@@H]32` (some centres not stated), the TGI in experiment [1] was > 100 µM; in experiment [2] it was > 100 µM; in experiment [3], > 100 µM; in experiment [10], 98.6 µM; in experiment [4], > 100 µM; in [5], > 100 µM. Also, the TGI in experiment [6], in experiment [7], in experiment [8] and in [9] was > 100 µM throughout.
Take `COc1ccc(-c2oc3cc(O)c(OC)c(O)c3c(=O)c2O)cc1`: the TGI in experiment [1] was > 100 µM; in experiment [2] it was > 100 µM; in experiment [3] it was > 100 µM; in [10] it was 50.2 µM; in experiment [4], 88.2 µM; in experiment [5], > 66.6 µM. In addition, the TGI was > 100 µM in experiment [6], 63.7 µM in experiment [7], 14.8 µM in [8] and 25.7 µM in experiment [9].
Consider `CSc1ccc2c(c1)c(CCN)c(C)n2Cc1ccccc1Cl`, for which the TGI in [1] was 3.22 µM; in [2] it was 3.86 µM; in [3] it was 3.25 µM; in experiment [10], 2.83 µM; in [4], 3.34 µM; in [5], 3.07 µM. Also, the TGI in experiment [6] worked out at 2.86 µM; in [7] it was 3.11 µM; in experiment [8] it was 3.89 µM; in experiment [9] it was 2.62 µM.
As for `CC(=O)NC(C)(C)C1CCC(C)CC1` (configuration not stated), the TGI in experiment [1], in experiment [2], in experiment [3], in experiment [10], in [4] and in [5] was > 100 µM each time. Also, the TGI in experiment [6], in experiment [7], in [8] and in experiment [9] was > 100 µM in each case.
Turning to `O=c1c2c3c(sc2nc2n1NC=NN2)CCCC3`, the TGI in experiment [1] is 36.1 µM; in experiment [2], > 62.6 µM; in experiment [3] it was > 56.6 µM; in [10] it was > 61.9 µM; in experiment [4], 55.3 µM; in experiment [5] it was 32.4 µM. The figures for the TGI in experiment [6], in experiment [7] and in [8] were > 56.7 µM, > 54.2 µM and 4.88 µM, respectively.
As for `COc1cc(S(=O)(=O)Nc2ccc(-c3csc(N4C(=O)CSC4c4ccccc4O)n3)cc2)ccc1Cl` (configuration not stated), the TGI is 88.2 µM in experiment [1]; > 100 µM in experiment [2]; > 100 µM in experiment [3]; > 100 µM in [4]; > 100 µM in [5]; > 100 µM in experiment [6]. Also, the TGI in experiment [7], in experiment [8] and in experiment [9] was > 100 µM each time.
Take `N#CC1=C(N)N(/N=C/c2ccco2)C(c2ccco2)C1(C#N)C#N` (configuration not stated): the TGI came to 35.8 µM in experiment [2]; 30 µM in experiment [3]; 25.8 µM in experiment [10]; 43.4 µM in experiment [4]; 25.3 µM in [5]; 48.5 µM in experiment [6]. Further, the TGI in [7] was 43.2 µM; in experiment [8] it was 19.2 µM; in experiment [9], 51.1 µM.
Take `CSc1nc(NCc2ccccc2)c2cnn(COCCO)c2n1`: the TGI in [2], in experiment [3], in experiment [10], in experiment [4], in experiment [5] and in [6] was > 100 µM each time. Further, the TGI in experiment [7], in experiment [8] and in experiment [9] was > 100 µM in each case.
Turning to `CC(C)(C)OC(=O)N1N=CCC1c1ccccc1` (configuration not stated), the TGI in experiment [2], in experiment [3], in [10], in [5], in [7] and in [8] was > 100 µM each time. In addition, the TGI in experiment [9] is > 100 µM.
Take `O=c1[nH]cnc2c1cnn2Cc1cnnn1COCCO`: the TGI in [1], in experiment [2], in experiment [3], in experiment [10], in experiment [4] and in [5] was > 100 µM throughout. The TGI in [6], in [7] and in experiment [9] was > 100 µM throughout.
On to `CC1CN(CCO)CCN1c1ccccc1` (configuration not stated), for which the TGI in experiment [1], in [2], in experiment [3], in experiment [10], in experiment [4] and in experiment [5] was > 100 µM each time. Moreover, the TGI in experiment [6], in experiment [7] and in experiment [9] was > 100 µM each time.

The values above are taken from PubChem BioAssay (NCI).
